From PMC12257073 (Cancer Research Communications, 2025)
Entries after “also recorded” stand apart in the source; their conditions may differ.

Assay: Adverse events (treatment-related and all-cause) and dose-limiting toxicities, NCI CTCAE version 4.0
Details: for Patients with treatment-related grade 3+ AEs: seven patients
[1] = Group 2, all-cause adverse events, Missing Categories
[2] = Group 2, all-cause adverse events, Skin and subcutaneous tissue disorders
[3] = Group 2, all-cause adverse events, Vascular disorders
[4] = group 1, 37 mg TP-0903 + decitabine
[5] = group 1, TP-0903 37 mg/day + decitabine, n = 15
[6] = group 2, 25 mg TP-0903 + decitabine
[7] = group 2, TP-0903 25 mg/day + decitabine, n = 12
[8] = overall, TP-0903 + decitabine, n = 27

Method: The phase 1b portion of the study used a standard 3 + 3 dose-escalation design with a starting dose level 1 (DL1) of 37 mg oral daily TP-0903 (Supplementary Table S2) based on experience with 50 mg oral daily as a single agent in patients with solid tumors ([25]). Dose-limiting toxicities (DLT) were evaluated to establish the dose brought forward for an expansion cohort (phase 2). Seven patients were enrolled in the phase 1b study, which was completed in January 2021 with the decision to move forward with an expansion cohort of 37 mg oral daily. Across the phase 1b and phase 2 studies, 15 patients were enrolled and started on 37 mg TP-0903 oral daily on days 1 to 21 (group 1). […] One additional patient was enrolled at this time but was inadvertently started on 25 mg TP-0903 oral daily on days 1 to 21. […] In May 2021, an amendment was approved to allow enrollment of a new group 2 at 25mg oral daily on days 1 to 21 of TP-0903 (DL-1) in stage 2 of the phase 2 study.
Clinical response was assessed according to the modified 2017 European LeukemiaNet AML criteria ([26]). The primary endpoint was achievement of CR within six cycles of therapy. Secondary endpoints included toxicity, duration of response, OS, and the proportion of eligible patients who effectively transitioned to allogeneic stem cell transplantation. Exploratory endpoints included pharmacokinetics (PK), correlative genetic, and biochemical data; correlations between morphologic remission, spectral flow cytometry, and mutational remission; and duration of remission or survival. […] Adverse events (AE) were graded according to the NCI Common Terminology Criteria for Adverse Events version 4.0 ([27]).

CN1CCN(Cc2ccc(Nc3ncc(Cl)c(Nc4ccccc4S(=O)(=O)N(C)C)n3)cc2)CC1.O=C(O)C(O)C(O)C(=O)O.O=C(O)C(O)C(O)C(=O)O [TP-0903, 2-(5-chloro-2-(4-((4-methylpiperazin-1-yl)methyl)phenylamino)pyrimidin-4-yl)amino-N,N-dimethylbenzene-1-sulfonamide di-tartrate salt]
Hypotension (intermittent), All [1]: 1 (8.3)
Hypotension (intermittent), Grade 1 2 [1]: 1 (8.3)
Hypotension (intermittent), Grade 3+ [1]: 0 (0)
INR - Increased, All [1]: 0 (0)
INR - Increased, Grade 1 2 [1]: 0 (0)
INR - Increased, Grade 3+ [1]: 0 (0)
Inflammation (bilateral knee), All [1]: 1 (8.3)
Inflammation (bilateral knee), Grade 1 2 [1]: 1 (8.3)
Inflammation (bilateral knee), Grade 3+ [1]: 0 (0)
Itching (intermittent), All [1]: 1 (8.3)
Itching (intermittent), Grade 1 2 [1]: 1 (8.3)
Itching (intermittent), Grade 3+ [1]: 0 (0)
Microvascular ischemic disease, All [1]: 1 (8.3)
Microvascular ischemic disease, Grade 1 2 [1]: 1 (8.3)
Microvascular ischemic disease, Grade 3+ [1]: 0 (0)
Pain (leg), All [1]: 1 (8.3)
Pain (leg), Grade 1 2 [1]: 1 (8.3)
Pain (leg), Grade 3+ [1]: 0 (0)
Retinal Detachment, All [1]: 0 (0)
Retinal Detachment, Grade 1 2 [1]: 0 (0)
Retinal Detachment, Grade 3+ [1]: 0 (0)
Steroid-induced hyperglycemia, All [1]: 1 (8.3)
Steroid-induced hyperglycemia, Grade 1 2 [1]: 1 (8.3)
Steroid-induced hyperglycemia, Grade 3+ [1]: 0 (0)
Symptomatic anemia, All [1]: 1 (8.3)
Symptomatic anemia, Grade 1 2 [1]: 0 (0)
Symptomatic anemia, Grade 3+ [1]: 1 (8.3)
lung fullness, All [1]: 0 (0)
lung fullness, Grade 1 2 [1]: 0 (0)
lung fullness, Grade 3+ [1]: 0 (0)
neuropathy (BLE), All [1]: 1 (8.3)
neuropathy (BLE), Grade 1 2 [1]: 1 (8.3)
neuropathy (BLE), Grade 3+ [1]: 0 (0)
pericarditis (intermittent), All [1]: 1 (8.3)
pericarditis (intermittent), Grade 1 2 [1]: 1 (8.3)
pericarditis (intermittent), Grade 3+ [1]: 0 (0)
Dry skin, All [2]: 0 (0)
Dry skin, Grade 1 2 [2]: 0 (0)
Dry skin, Grade 3+ [2]: 0 (0)
Ecchymosis, All [2]: 4 (33.3)
Ecchymosis, Grade 1 2 [2]: 4 (33.3)
Ecchymosis, Grade 3+ [2]: 0 (0)
Erythema nodosum, All [2]: 1 (8.3)
Erythema nodosum, Grade 1 2 [2]: 1 (8.3)
Erythema nodosum, Grade 3+ [2]: 0 (0)
Erythema, All [2]: 0 (0)
Erythema, Grade 1 2 [2]: 0 (0)
Erythema, Grade 3+ [2]: 0 (0)
Hyperhidrosis, All [2]: 1 (8.3)
Hyperhidrosis, Grade 1 2 [2]: 1 (8.3)
Hyperhidrosis, Grade 3+ [2]: 0 (0)
Nail discolouration, All [2]: 0 (0)
Nail discolouration, Grade 1 2 [2]: 0 (0)
Nail discolouration, Grade 3+ [2]: 0 (0)
Petechiae, All [2]: 3 (25)
Petechiae, Grade 1 2 [2]: 3 (25)
Petechiae, Grade 3+ [2]: 0 (0)
Photosensitivity reaction, All [2]: 0 (0)
Photosensitivity reaction, Grade 1 2 [2]: 0 (0)
Photosensitivity reaction, Grade 3+ [2]: 0 (0)
Pruritus, All [2]: 0 (0)
Pruritus, Grade 1 2 [2]: 0 (0)
Pruritus, Grade 3+ [2]: 0 (0)
Rash papular, All [2]: 1 (8.3)
Rash papular, Grade 1 2 [2]: 1 (8.3)
Rash papular, Grade 3+ [2]: 0 (0)
Rash, All [2]: 1 (8.3)
Rash, Grade 1 2 [2]: 1 (8.3)
Rash, Grade 3+ [2]: 0 (0)
Scab, All [2]: 1 (8.3)
Scab, Grade 1 2 [2]: 1 (8.3)
Scab, Grade 3+ [2]: 0 (0)
Skin disorder, All [2]: 0 (0)
Skin disorder, Grade 1 2 [2]: 0 (0)
Skin disorder, Grade 3+ [2]: 0 (0)
Skin lesion, All [2]: 1 (8.3)
Skin lesion, Grade 1 2 [2]: 1 (8.3)
Skin lesion, Grade 3+ [2]: 0 (0)
Swelling face, All [2]: 1 (8.3)
Swelling face, Grade 1 2 [2]: 1 (8.3)
Swelling face, Grade 3+ [2]: 0 (0)
Hypertension, All [3]: 1 (8.3)
Hypertension, Grade 1 2 [3]: 0 (0)
Hypertension, Grade 3+ [3]: 1 (8.3)
Hypotension, All [3]: 1 (8.3)
Hypotension, Grade 1 2 [3]: 0 (0)
Hypotension, Grade 3+ [3]: 1 (8.3)
Lymphoedema, All [3]: 1 (8.3)
Lymphoedema, Grade 1 2 [3]: 1 (8.3)
Lymphoedema, Grade 3+ [3]: 0 (0)
Peripheral venous disease, All [3]: 1 (8.3)
Peripheral venous disease, Grade 1 2 [3]: 1 (8.3)
Peripheral venous disease, Grade 3+ [3]: 0 (0)
Serious AEs related to TP-0903 (all treated patients, TP-0903 + decitabine): no patients had serious AEs related to TP-0903; also recorded: no serious AEs attributable to TP-0903
Diarrhea, grade 1 to 2 treatment-related AE (any grade) [4]: 33%
Fatigue, grade 3+ treatment-related AE [4]: 6%
Nausea, grade 1 to 2 treatment-related AE (any grade) [4]: 47%
Neutropenia, grade 3+ treatment-related AE [4]: 33%
Stomatitis, grade 3+ treatment-related AE [4]: 6%
Thrombocytopenia, grade 3+ treatment-related AE [4]: 27%
Patients with treatment-related grade 3+ AEs [4]: 47%
Anemia, treatment-related AE grade ≥3 [5]: 2 (13.3) no. (%)
Decreased appetite, treatment-related AE grade ≥3 [5]: 0 (0) no. (%)
Febrile neutropenia, treatment-related AE grade ≥3 [5]: 0 (0) no. (%)
Leukopenia, treatment-related AE grade ≥3 [5]: 3 (20) no. (%)
Lymphocyte count decreased, treatment-related AE grade ≥3 [5]: 0 (0) no. (%)
Neutropenia, treatment-related AE grade ≥3 [5]: 5 (33.3) no. (%)
Pneumonia, treatment-related AE grade ≥3 [5]: 0 (0) no. (%)
Thrombocytopenia, treatment-related AE grade ≥3 [5]: 4 (26.7) no. (%)
Decreased appetite, grade 1 to 2 treatment-related AE (any grade) [6]: 25%
Decreased appetite, grade 3+ treatment-related AE [6]: 8%
Diarrhea, grade 1 to 2 treatment-related AE (any grade) [6]: 25%
Febrile neutropenia, grade 3+ treatment-related AE [6]: 33%
Leukopenia, grade 3+ treatment-related AE [6]: 33%
Lymphocyte count decrease, grade 3+ treatment-related AE [6]: 42%
Nausea, grade 1 to 2 treatment-related AE (any grade) [6]: 42%
Neutropenia, grade 3+ treatment-related AE [6]: 50%
Pneumonia, grade 3+ treatment-related AE [6]: 8%
Thrombocytopenia, grade 3+ treatment-related AE [6]: 25%
Patients with treatment-related grade 3+ AEs [6]: 58%
Anemia, treatment-related AE grade ≥3 [7]: 1 (8.3) no. (%)
Decreased appetite, treatment-related AE grade ≥3 [7]: 1 (8.3) no. (%)
Fatigue, treatment-related AE grade ≥3 [7]: 0 (0) no. (%)
Febrile neutropenia, treatment-related AE grade ≥3 [7]: 4 (33.3) no. (%)
Leukopenia, treatment-related AE grade ≥3 [7]: 4 (33.3) no. (%)
Lymphocyte count decreased, treatment-related AE grade ≥3 [7]: 5 (41.7) no. (%)
Neutropenia, treatment-related AE grade ≥3 [7]: 6 (50) no. (%)
Pneumonia, treatment-related AE grade ≥3 [7]: 1 (8.3) no. (%)
Stomatitis, treatment-related AE grade ≥3 [7]: 0 (0) no. (%)
Thrombocytopenia, treatment-related AE grade ≥3 [7]: 3 (25) no. (%)
Anemia, treatment-related AE grade ≥3 [8]: 3 (11.1) no. (%)
Decreased appetite, treatment-related AE grade ≥3 [8]: 1 (3.7) no. (%)
Fatigue, treatment-related AE grade ≥3 [8]: 1 (3.7) no. (%)
Febrile neutropenia, treatment-related AE grade ≥3 [8]: 4 (14.8) no. (%)
Leukopenia, treatment-related AE grade ≥3 [8]: 7 (25.9) no. (%)
Lymphocyte count decreased, treatment-related AE grade ≥3 [8]: 5 (18.5) no. (%)
Neutropenia, treatment-related AE grade ≥3 [8]: 11 (40.7) no. (%)
Pneumonia, treatment-related AE grade ≥3 [8]: 1 (3.7) no. (%)
Stomatitis, treatment-related AE grade ≥3 [8]: 1 (3.7) no. (%)
Thrombocytopenia, treatment-related AE grade ≥3 [8]: 7 (25.9) no. (%)
Dose-limiting toxicities (DLT) (phase 1b, DL1 37 mg TP-0903 + decitabine, six evaluable patients): No DLTs were observed
